Assay results as given in US11116747B2, “Compositions comprising proanthocyanidins and oenothein B” (Nugerontix Limited, priority 2014, dated 2021).

Key:
[1] = system: endothelial nitric oxide synthase (eNOS) mRNA; assay: eNOS mRNA levels in endothelial cells by qRT-PCR; assay type: cell-based, bovine; conditions: 24 h; OTb 1 μg/ml, Ap-OPC 1 μg/ml; normalised to RNA polymerase 2; FIG. 4(B)
Description: (§1) The effects on endothelin-1 synthesis of purified procyanidins and ellagitannins, either alone or in combination, are tested on human, bovine or porcine aortic endothelial cells cultured in multi-well plates. Cells are grown in a CO2 incubator with specific growth media until becoming confluent. Purified extracts, chromatography fractions, or isolated procyanidins and ellagitannins are evaluated after dilution in cell culture media and then incubated for up to 24 h with the cultured cells. At the end of the incubation period cell culture media samples are collected, and endothelin-1 synthesis is determined by immunoassay of the media samples. ET-1 release for each treated well is expressed as a percentage of basal release from control wells containing cells incubated with cell culture medium alone. Data are compared and analysed for statistically significant differences using life sciences software such as Graphpad Prism (available from www.graphpad.com). At the end of the incubation period cells are lysed to obtain mRNA to measure changes in gene expression that indicate improved endothelial function. Analyses of relative levels of mRNA transcripts are undertaken by quantitative reverse transcription polymerase chain reaction (qRT-PCR) (Journal of Agricultural and Food Chemistry, 2010, 58: 4008-13). […]

[2] = system: Kruppel-like factor 2 (KLF2) mRNA; assay: KLF2 mRNA levels in endothelial cells by qRT-PCR; assay type: cell-based, bovine; conditions: 24 h; OTb 1 μg/ml, Ap-OPC 1 μg/ml; normalised to RNA polymerase 2; FIG. 4(A)
Description: as §1

[3] = system: endothelin-1 (ET-1) mRNA; assay: Endothelin-1 mRNA levels in endothelial cells by qRT-PCR; assay type: cell-based, bovine; conditions: 24 h; OTb 1 μg/ml, Ap-OPC 1 μg/ml; normalised to RNA polymerase 2; FIG. 4(C)
Description: as §1

[4] = system: bovine aortic endothelial cells; assay: Binding of biotinylated-OPC to endothelial cells (neutravidin-horseradish peroxidase/TMB detection); assay type: cell-based; conditions: oenothein B 30 min preincubation, then biotinylated-OPC 1 μg/ml with oenothein B 30 min, FIG. 1(C)
Description: Bovine aortic endothelial cells were incubated with oenothein B (μg/ml) from pomegranate juice for 30 min before addition of biotinylated-OPC (1 μg/ml) alone or with oenothein B (μg/ml) for 30 min. After removal of the incubation mixture, bound biotinylated-OPC was detected by incubation with neutravidin-horseradish peroxidase for 1 h; followed by addition of TMB substrate for 30 min after cells had been rinsed twice to remove excess neutravidin-horseradish peroxidase. Binding is indicated relative to biotinylated-OPC alone after subtraction of background signal. (All data are shown as mean±SD; *=P<0.05; **=P<0.01; ***=P<0.001 indicates significant differences from basal or control values). […] From this it can be concluded that oenothein B increases the affinity of endothelial cells for procyanidins, and enhances the effectiveness of procyanidins for reversing endothelial dysfunction.

[5] = system: endothelin-1 synthesis; assay: Inhibition of endothelin-1 synthesis by endothelial cells (immunoassay of conditioned media); assay type: cell-based, bovine; conditions: for endothelin-1 synthesis, percentage of basal values: Rb-ET 2 μg/ml, GS-OPC 1 μg/ml, alone or in combination
Description: The effects on endothelin-1 synthesis of purified procyanidins and ellagitannins, either alone or in combination, are tested on human, bovine or porcine aortic endothelial cells cultured in multi-well plates. Cells are grown in a CO2 incubator with specific growth media until becoming confluent. Purified extracts, chromatography fractions, or isolated procyanidins and ellagitannins are evaluated after dilution in cell culture media and then incubated for up to 24 h with the cultured cells. At the end of the incubation period cell culture media samples are collected, and endothelin-1 synthesis is determined by immunoassay of the media samples. ET-1 release for each treated well is expressed as a percentage of basal release from control wells containing cells incubated with cell culture medium alone. Data are compared and analysed for statistically significant differences using life sciences software such as Graphpad Prism (available from www.graphpad.com). At the end of the incubation period cells are lysed to obtain mRNA to measure changes in gene expression that indicate improved endothelial function. Analyses of relative levels of mRNA transcripts are undertaken by quantitative reverse transcription polymerase chain reaction (qRT-PCR) (Journal of Agricultural and Food Chemistry, 2010, 58: 4008-13).
Oenothein B (>95% purity) was purified from pomegranate juice by Sephadex LH20 chromatography and reverse-phase HPLC (step 1—Apex Prepsil 8 μm C-18 10×250 mm HPLC column—Jones Chromatography; step 2 Luna 5 μm PFP(2) 4.6×250 mm HPLC column—Phenomenex). Ability to modify endothelial function was assessed by incubating oenothein B with bovine aortic endothelial cells and measuring endothelin-1 synthesis following previously described methods (Journal of Agricultural and Food Chemistry, 2010, 58: 4008-13).
Biologically active biotin-labelled apple oligomeric procyanidins were prepared as follows: apple polyphenol extract was fractionated on Sephadex LH20 to obtain a fraction enriched in apple oligomeric procyanidins (OPC) tetramers to hexamers. The fraction was dried, re-dissolved in dimethyl formamide and reacted with the tetrafluorophenyl ester of triethyleneglycol-biotin (Thermo Scientific EZ-Link™ TFP-PEG3-Biotin). […]
Ellagitannins: oenothein B (OTb, 1 μg/ml), raspberry seed extract (Rb-ET 2 μg/ml); oligomeric procyanidins (OPC): grape seed extract (GS-OPC, 1 μg/ml) and apple extract (Ap-OPC, 1 μg/ml) purified as above, were incubated either alone, or in combination, with bovine aortic endothelial cells for 6 h and 24 h (FIGS. 2(A) and 2(B)). […] Statistical differences were determined by ANOVA (**=P<0.01; ***=P<0.001 indicates significant difference compared to basal values; ^+++=P<0.001 compared to the individual components of the combinations alone). […]

O=C(O[C@@H]1[C@H]2OC(=O)c3cc(O)c(O)c(O)c3Oc3cc4c(c(O)c3O)-c3c(cc(O)c(O)c3O)C(=O)OC[C@H]3O[C@@H](O)[C@H](OC(=O)c5cc(O)c(O)c(O)c5Oc5cc6c(c(O)c5O)-c5c(cc(O)c(O)c5O)C(=O)O[C@@H]1[C@@H](COC6=O)O[C@H]2O)[C@@H](OC(=O)c1cc(O)c(O)c(O)c1)[C@@H]3OC4=O)c1cc(O)c(O)c(O)c1 [oenothein B]
eNOS mRNA levels, ratio to control [1]: little effect | KLF2 mRNA levels, ratio to control [2]: relatively insignificant | endothelin-1 (ET-1) mRNA levels, ratio to control [3]: largely unaffected | binding of biotinylated-OPC relative to biotinylated-OPC alone [4]: binding of procyanidins increases as oenothein B concentration increases | endothelin-1 synthesis, percentage of basal values ([5]; 6 h incubation, OTb 1 μg/ml, Ap-OPC 1 μg/ml, FIG. 2(A)): inhibited endothelin-1 synthesis | endothelin-1 total synthesis ([5]; 24 h, OTb 1 μg/ml, Ap-OPC 1 μg/ml, Example 19, FIG. 4(D)): largely unaffected | endothelin-1 synthesis, percentage of basal values ([5]; 24 h incubation, OTb 1 μg/ml, Ap-OPC 1 μg/ml, FIG. 2(B)): much reduced | inhibition of endothelin-1 synthesis ([5]; bovine aortic endothelial cells, FIG. 1(A), 1(B)): concentration dependent
